Results as given in patent US20240002436A1, “RESPIRATORY TREATMENTS” (Hofseth Biocare ASA, priority 2020, published 2024).
Where a SMILES comes first, the peptide text is derived from it. [ ]: non-standard residue; d: D form. The star is where a group is joined. cisHyp = O=C(O)[C@@H]1C[C@H](O)CN1; NMeL = CN[C@@H](CC(C)C)C(=O)O; NMeV = CN[C@H](C(=O)O)C(C)C; Octanoyl = CCCCCCCC(=O)*

B1: ApoA-IV: positive control in the eosinophil apoptosis and CD11b assays, used at 3 μg/mL (protein, UniProt P06727 21-396, looked up)
Apolipoprotein A-IV: EVSADQVATVMWDYFSQLSNNAKEAVEHLQKSELTQQLNALFQDKLGEVNTYAGDLQKKLVPFATELHERLAKDSEKLKEEIGKELEELRARLLPHANEVSQKIGDNLRELQQRLEPYADQLRTQVSTQAEQLRRQLTPYAQRMERVLRENADSLQASLRPHADELKAKIDQNVEELKGRLTPYADEFKVKIDQTVEELRRSLAPYAQDTQEKLNHQLEGLTFQMKKNAEELKARISASAEELRQRLAPLAEDVRGNLRGNTEGLQKSLAELGGHLDQQVEEFRRRVEPYGENFNKALVQQMEQLRQKLGPHAGDVEGHLSFLEKDLRDKVNSFFSTFKEKESQDKTLSLPELEQQQEQQQEQQQEQVQMLAPLES

Assays:
[1] = test system: Allergic Human Purified Peripheral Blood Eosinophils; assay: Percent eosinophil apoptosis (Annexin V-FITC, flow cytometry) in allergic human purified peripheral blood eosinophils; format: cell-based; conditions: IL-5 (50 pM), 18 hr incubation; for viability at 10 µg/mL / Percent apoptotic eosinophils (annexin V-positive) at 10 µg/mL: Homo sapiens, Eosinophil, 10 μg/mL test compound, assay SD +/-2.3%; for viability at 10 µg/mL: read-out: Percent live EO cells; for Percent apoptotic eosinophils (annexin V-positive) at 10 µg/mL: read-out: Percent of apoptotic EO cells
Procedure: Percent Eosinophil Apoptosis in Allergic Human Purified Peripheral Blood Eosinophils
Aliquots were removed after 18 hr incubation, washed twice in PBS, and resuspended in binding buffer. The eosinophil cells were stained using the Annexin V-FITC Apoptosis Detection Kit I, (Sigma Aldrich) and immediately analyzed by flow cytometry. Each sample was acquired for 1 min, and the total number of eosinophils gated on a forward scatter/side scatter plot and the percentage of live cells (annexin Vneg) and apoptotic cells (annexin Vpos) was recorded.

[2] = test system: CD11b on PMNL surface; assay: CD11b change on PMNL surface stimulated by CCL11 (flow cytometry); format: cell-based; conditions: 30 min pretreatment, 2.5 nm CCL11 30 min at 37° C., CD16 negative cells; for activity at 1 µg/mL: Homo sapiens, PMNL, 0.5 h, 1 μg/mL test compound, assay SD +/-2%, read-out: CD11b change (100% as baseline)
Procedure: CD11b Change (100% as Baseline) on PMNL Surface Stimulated by 2.5 nm CCL11
(PMNL) cells were pretreated with 3 μg/mL ApoA-IV (positive control), 1 μg/mL test compounds, and formulation vehicle (negative control) for 30 minutes and incubated with serial dilutions of CCL 11 for 30 minutes at 37° C. Samples were stained with anti-CD16-PE-Cy5 and anti-CD11b-PE (ICRF44) antibodies. Eosinophils were identified as CD16 negative cells. CD11b upregulation was analyzed by flow cytometry and reported above. (Standard deviation in the assay is +/−2%). See results in Table 2 below.

[3] = 3 μg/mL ApoA-IV (positive control)

Molecule | viability at 10 µg/mL ([1]; annexin Vneg) [%] | Percent apoptotic eosinophils (annexin V-positive) at 10 µg/mL ([1]; annexin Vpos) [%] | activity at 1 µg/mL [2] [%] | Total percent live and apoptotic EO cells [1, 3] [%] | Percent live EO cells ([1]; 3 μg/mL ApoA-IV (positive control), annexin Vneg) [%] | Percent of apoptotic EO cells ([1]; 3 μg/mL ApoA-IV (positive control), annexin Vpos) [%] | CD11b change (100% as baseline) [2, 3] [%]
CCCC[C@@H](C)C[C@@H](C)C(=O)N(C)[C@@H](CC(C)C)C(=O)N[C@H](C(=O)N(C)[C@H](C(=O)N1C[C@@H](O)C[C@H]1C(=O)N1C(=O)C=C[C@@H]1C)C(C)C)C(C)OC(C)=O (stereo partly drawn) [Compound 1a] | 42.5 | 53.2 | 129 | – | – | – | –
CCCCC(C)CC(C)C(=O)N(C)[C@@H](CC(C)C)C(=O)N[C@H](C(=O)N(C)[C@H](C(=O)N1C[C@@H](O)C[C@H]1C(=O)N1C(=O)C=C[C@@H]1C)C(C)C)C(C)OC(C)=O (stereo partly drawn) [Compound 1b] | 41.8 | 55 | 128 | – | – | – | –
CCCC[C@@H](C)C[C@@H](C)C(=O)N(C)[C@@H](CC(C)C)C(=O)N[C@H](C(=O)N(C)[C@H](C(=O)N1CCC[C@H]1C(=O)N1C(=O)C=C[C@@H]1C)C(C)C)C(C)OC(C)=O (stereo partly drawn) [Compound 3a] | 51.6 | 43.7 | 139 | – | – | – | –
CCCCCCCC(=O)N(C)[C@@H](CC(C)C)C(=O)N[C@H](C(=O)N(C)[C@H](C(=O)N1C[C@@H](O)C[C@H]1C(=O)N1C(=O)C=C[C@@H]1C)C(C)C)C(C)OC(C)=O (stereo partly drawn) [Compound 5a] | 42.9 | 53.1 | 129 | – | – | – | –
CCCCC(C)CC(C)C(=O)N[C@@H](CC(C)C)C(=O)N[C@H](C(=O)N[C@H](C(=O)N1C[C@@H](O)C[C@H]1C(=O)N1C(=O)C=C[C@@H]1C)C(C)C)C(C)OC(C)=O (stereo partly drawn) [Compound 6a] | 54.5 | 42.8 | 141 | – | – | – | –
CCCCC(C)CC(C)C(=O)N(C)CC(=O)N[C@H](C(=O)N(C)CC(=O)N1C[C@@H](O)C[C@H]1C(=O)N1C(=O)C=C[C@@H]1C)C(C)OC(C)=O (stereo partly drawn) [Compound 7a] | 59.4 | 39.9 | 149 | – | – | – | –
CCCCC(C)CC(C)C(=O)N(C)[C@@H](CC(C)C)C(=O)N[C@H](C(=O)N(C)[C@H](C(=O)N1C[C@@H](O)C[C@H]1C(=O)N1C(=O)C=C[C@@H]1C)C(C)C)C(C)O (stereo partly drawn) [Compound 8a] | 31.2 | 60.1 | 122 | – | – | – | –
CCCCC(C)CC(C)C(=O)N(C)[C@@H](CC(C)C)C(=O)N[C@@H](COC(C)=O)C(=O)N(C)[C@H](C(=O)N1C[C@@H](O)C[C@H]1C(=O)N1C(=O)C=C[C@@H]1C)C(C)C (stereo partly drawn) [Compound 9a] | 39.6 | 56.4 | 127 | – | – | – | –
CCCCC(C)CC(C)C(=O)N(C)[C@@H](CC(C)C)C(=O)N[C@@H](CS)C(=O)N(C)[C@H](C(=O)N1CCC[C@H]1C(=O)N1C(=O)C=C[C@@H]1C)C(C)C (stereo partly drawn) [Compound 11a] | 49.7 | 44.4 | 135 | – | – | – | –
CCCCC(C)CC(C)C(=O)N(C)[C@@H](CC(C)C)C(=O)N[C@H](C(=O)N(C)[C@H](C(=O)N1CCC[C@H]1C(=O)N1C(=O)C=CC1=O)C(C)C)C(C)OC(C)=O (stereo partly drawn) [Compound 12a] | 52 | 42.1 | 141 | – | – | – | –
CC(C)C[C@@H](C(=O)N[C@H](C(=O)N(C)[C@H](C(=O)N1C[C@@H](O)C[C@H]1C(=O)N1C(=O)C=C[C@@H]1C)C(C)C)C(C)O)N(C)C(=O)C1CCCCC1 (stereo partly drawn) [Compound 13a] | 51.3 | 44 | – | – | – | – | –
CC/C=C\C/C=C\C/C=C\C/C=C\C/C=C\CCCC(=O)N(C)[C@@H](CC(C)C)C(=O)N[C@H](C(=O)N(C)[C@H](C(=O)N1C[C@@H](O)C[C@H]1C(=O)N1C(=O)C=C[C@@H]1C)C(C)C)C(C)O (stereo partly drawn) [Compound 14a] | 26.6 | 67.1 | – | – | – | – | –
CCCCCCCC(=O)N(C)[C@@H](CC(C)C)C(=O)N[C@@H](COC(C)=O)C(=O)N(C)[C@H](C(=O)N1C[C@@H](O)C[C@H]1C(=O)OC)C(C)C [Compound 17a] (Octanoyl-[NMeL]S(Ac)[NMeV][cisHyp]-OMe) | 53.5 | 48.2 | – | – | – | – | –
CCCCCCCC(=O)N(C)[C@@H](Cc1ccccc1)C(=O)N[C@H](C(=O)N(C)[C@H](C(=O)N1C[C@@H](O)C[C@H]1C(=O)N1C(=O)C=CC1=O)C(C)C)C(C)OC(C)=O (stereo partly drawn) [Compound 18a] | 41 | 55.5 | – | – | – | – | –
CCCCCCCC(=O)N(C)[C@@H](CC(C)C)C(=O)N[C@H](C(=O)N(C)[C@@H](CCSC)C(=O)N1C[C@@H](O)C[C@H]1C(=O)N1C(=O)C=CC1=O)C(C)OC(C)=O (stereo partly drawn) [Compound 19a] | 52.7 | 41.8 | – | – | – | – | –
CCCCCCCC(=O)N(C)[C@H](C(=O)N[C@H](C(=O)N(C)[C@@H](Cc1c[nH]c2ccccc12)C(=O)N1C[C@@H](O)C[C@H]1C(=O)N1C(=O)C=CC1=O)C(C)OC(C)=O)C(C)CC (stereo partly drawn) [Compound 20a] | 59.3 | 39.4 | – | – | – | – | –
CC/C=C\C/C=C\C/C=C\C/C=C\C/C=C\CCCC(=O)N(C)[C@@H](CC(C)C)C(=O)N[C@H](C(=O)N(C)[C@H](C(=O)N1C[C@@H](O)C[C@H]1C(=O)N1C(=O)C=CC1=O)C(C)C)C(C)OC(C)=O (stereo partly drawn) [Compound 21a] | 38.2 | 58 | – | – | – | – | –
CC/C=C\C/C=C\C/C=C\C/C=C\C/C=C\CCCC(=O)N(C)[C@@H](CC(C)C)C(=O)N[C@H](C(=O)N(C)[C@H](C(=O)N1C[C@@H](O)C[C@H]1C(=O)N1C(=O)C=CC1=O)C(C)C)C(C)O (stereo partly drawn) [Compound 22a] | 28.1 | 68.7 | – | – | – | – | –
CC/C=C\C/C=C\C/C=C\C/C=C\C/C=C\CCCC(=O)N(C)[C@@H](Cc1ccccc1)C(=O)N[C@H](C(=O)N(C)[C@H](C(=O)N1C[C@@H](O)C[C@H]1C(=O)N1C(=O)C=CC1=O)C(C)C)C(C)OC(C)=O (stereo partly drawn) [Compound 23a] | 31.4 | 65.6 | – | – | – | – | –
CC/C=C\C/C=C\C/C=C\C/C=C\C/C=C\CCCC(=O)N(C)[C@@H](Cc1ccccc1)C(=O)N[C@H](C(=O)N(C)[C@H](C(=O)N1CCC[C@H]1C(=O)N1C(=O)C=CC1=O)C(C)C)C(C)OC(C)=O (stereo partly drawn) [Compound 24a] | 33.8 | 64.9 | – | – | – | – | –
CC/C=C\C/C=C\C/C=C\C/C=C\C/C=C\CCCC(=O)N(C)[C@@H](Cc1ccccc1)C(=O)N[C@H](C(=O)N(C)[C@H](C(=O)N1CCC[C@H]1C(=O)N1C(=O)C=CC1=O)C(C)C)C(C)O (stereo partly drawn) [Compound 25a] | 22.3 | 73.1 | – | – | – | – | –
CC/C=C\C/C=C\C/C=C\C/C=C\C/C=C\CCCCCC(=O)N(C)[C@@H](Cc1ccccc1)C(=O)N[C@H](C(=O)N(C)[C@H](C(=O)N1CCC[C@H]1C(=O)N1C(=O)C=CC1=O)C(C)C)C(C)O (stereo partly drawn) [Compound 26a] | 30 | 67.3 | – | – | – | – | –
CC/C=C\C/C=C\C/C=C\C/C=C\C/C=C\CCCC(=O)N(C)[C@@H](CC(C)C)C(=O)N[C@H](C(=O)N(C)[C@H](C(=O)N1C[C@@H](O)C[C@H]1C(=O)N1C(=O)C=C[C@@H]1C)C(C)C)C(C)OC(C)=O (stereo partly drawn) [Compound 27a] | 39.1 | 56.5 | – | – | – | – | –
B1 | – | – | – | 92.4 | 29.3 | 63.1 | 121
